According to PubChem BioAssay (NCI):
Values joined by “and” are separate entries in the source; they are usually repeats but may differ in a detail not shown here. Identical values can stand only once.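 All cell lines were grown in 96-well plates and treated with compound for 48 hours. Here, GI50 denotes the concentration required for 50% inhibition of growth. TGI is the concentration that stops growth completely.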

What was measured:
Assay in all cases: inhibition of tumour cell growth, NCI panel, 48 h
[1] = tested on: A498 renal
[2] = tested on: NCI-H522 lung
[3] = tested on: OVCAR-8 ovarian
[4] = tested on: SF-268 CNS
[5] = tested on: SK-MEL-2 melanoma
[6] = tested on: SN12C renal
[7] = tested on: T-47D breast
[8] = tested on: HCC-2998 colon

Compound	TGI [1]	TGI [2] [µM]	TGI [3] [µM]	TGI [4] [µM]	TGI [5]	TGI [6] [µM]	TGI [7]	GI50 [1]	GI50 [8]	TGI [8] [µM]	GI50 [2]	GI50 [3]	GI50 [4]	GI50 [5]	GI50 [6]	GI50 [7]
c1cc2c(c(NC3=NCCN3)c1)CCCC2	> 100 µM	> 100	> 100	> 100	> 100 µM	> 100	> 100 µM									
O=C1NC(=O)C(c2c[nH]c3ccccc23)=C1c1ccccc1	> 25 µM	> 25	> 25	> 25	> 25 µM	> 25	> 25 µM	> 17.6 µM	> 25 µM	> 25	> 25 µM	> 25 µM	> 25 µM	> 25 µM	> 25 µM	> 25 µM
N=C1C(c2nc3ccccc3s2)=C(O)CN1c1cc(Cl)cc(Cl)c1	> 100 µM		> 100	> 100	> 100 µM	> 100	> 100 µM	> 100 µM	> 100 µM	> 100		> 100 µM	32.3 µM	> 100 µM	> 100 µM	> 100 µM
CC1COCCN1CC#CCOC(=O)c1cc2ccccc2oc1=O (stereo not drawn)		> 100	> 100	> 100	> 100 µM	> 100	> 100 µM		> 100 µM	> 100	> 100 µM	> 100 µM	> 100 µM	> 100 µM	> 100 µM	> 100 µM
COc1cc2c(cc1O)C1CC(CC3CCCCN31)OC(=O)/C=C\c1ccc(O)c-2c1 (stereo not drawn)	30.6 µM	65	54.2	72.3	72.1 µM	> 100	45.7 µM			36						
COc1ccc2c(c1)N(CCO)C1=C(C(=O)OC1)C2c1ccc(OC)c(OC)c1 (stereo not drawn)	5.93 µM	5.25	> 100	> 100	11.3 µM	> 100	> 100 µM	1.56 µM	2.61 µM	> 100	1.48 µM	3.34 µM	4.5 µM	2.66 µM	5.8 µM	> 100 µM
Cc1cc(N)cc(C)c1-c1c(Br)cc(N)cc1Br	7.54 µM	7.88	28.6	68.5	21.1 µM	73.2	20.3 µM	1.82 µM	3.42 µM	16.6	2.19 µM	4.41 µM	6.36 µM	4.14 µM	6.05 µM	4.11 µM
Cc1cc2c(cc1Cl)SC(C(=O)c1ccc(Cl)c(Cl)c1)NS2(=O)=O (stereo not drawn)	> 100 µM	74.4	> 100	88.6	> 100 µM	86.4	49.9 µM	70.5 µM	19.8 µM	35.1	28.9 µM	44.5 µM	33.6 µM	40.2 µM	32 µM	19.9 µM
CNc1ncc2cc(-c3cc(NC(=O)NCCC(C)(C)C)c(F)cc3C)c(C)nc2n1	0.743 µM and 0.65 µM	> 20.9	> 100	> 100	0.143 µM and 0.265 µM	> 100	25.1 µM and > 10 µM	0.149 µM and 0.167 µM	0.283 µM and 0.207 µM	> 77.2	0.294 µM and 0.333 µM	0.512 µM and 0.515 µM	0.716 µM and 0.721 µM	0.0277 µM and 0.0426 µM	0.485 µM and 0.411 µM	0.819 µM and 1.51 µM
N=C1/C(=C2\Nc3ccccc3S2)CC(=O)N1c1ccc(SC(F)F)cc1		> 100	> 100	> 100	> 100 µM	> 100	> 100 µM				17.3 µM	7.42 µM	4.45 µM	27.3 µM	> 100 µM	27.8 µM
OCc1ccc(N(Cc2ccc(F)cc2)CC2CCC2)cc1Cl	0.34 µM	27.1	32.4	32.1	25.2 µM	24.7	12.2 µM	0.092 µM	11.5 µM	25.2	12.7 µM	14.7 µM	17.1 µM	11.2 µM	12 µM	2.11 µM
COc1ccc2nc3cc(Cl)ccc3c(Nc3cc(C(C)C)c(O)cc3C)c2c1	6.58 µM	3.65	4.47	6.86	3.75 µM	7.42	4.68 µM	2.05 µM	2.22 µM	5.58	1.79 µM	2.06 µM	2.35 µM	1.85 µM	2.55 µM	1.92 µM
COC1=CC2CCN3Cc4cc5c(cc4C(C1O)C23)OCC5 (stereo not drawn)	98.8 µM	> 100	37.3	> 100	> 43 µM	6.08	6.51 µM	17.7 µM	1.09 µM	7.37	28 µM	3.75 µM	4.57 µM	14.4 µM	1.06 µM	1.33 µM
COc1c2ccccc2c(O)c2c(=O)ccn(C)c12	41.6 µM	> 100	38.1	> 68.9	> 100 µM	22.1	> 100 µM	10.7 µM	3.68 µM	20	23.9 µM	4.42 µM	16.5 µM	22.6 µM	6.79 µM	31.7 µM
Fc1ccc(C2C3CCOc4c(ccc5ccccc45)C3=NN2c2ccccc2)cc1 (stereo not drawn)	> 100 µM	> 100	> 100	> 100	> 100 µM	> 100	> 94.8 µM	> 100 µM			> 100 µM	> 60.2 µM	> 77.9 µM	> 100 µM	> 100 µM	25.4 µM
O=C1NC(=N[C@H](CO)c2ccccc2)S/C1=C\c1ccc2ncccc2c1	7.13 µM	6.31	> 25	> 25	14.3 µM	> 25	> 24.1 µM	2.07 µM	7.96 µM	> 25	1.54 µM	5.27 µM	3.82 µM	5.49 µM	5.02 µM	4.18 µM
CC(C)COC(c1ccc2c(c1)OCO2)C(C)Br (stereo not drawn)	> 100 µM	37.8	> 100	59.7	44.3 µM	45				38.6						
N#Cc1c(N)c(C#N)c2c(c1-c1ccc(Cl)cc1)COc1ccc(F)cc1-2	28 µM	14.5	> 50		> 50 µM	> 50	> 50 µM	7.89 µM			2.75 µM	> 50 µM		> 50 µM	> 50 µM	> 50 µM
O=c1[nH]c(SCc2ccccc2[N+](=O)[O-])nc2nc[nH]c12	> 100 µM	> 100	> 100	> 100	> 100 µM	> 100	> 100 µM									
COc1cc(/C=C/c2cc(O)c(C/C=C(\C)CC/C=C(\C)CO)c(O)c2)cc2c1O[C@]1(C)CC[C@@H](O)C(C)(C)[C@H]1C2			> 82.3	> 100	> 100 µM	> 100	> 100 µM		12 µM	39.6		> 53.3 µM		> 100 µM		> 62.4 µM
O=C(O)c1cn(C2CC2)c2cc(N3CCN(Cc4ccc5ccccc5c4O)CC3)c(F)cc2c1=O	4.67 µM		> 100	> 100	> 100 µM	> 100	> 100 µM	2.09 µM				3.74 µM	8.13 µM	5.11 µM	3.44 µM	> 100 µM
CCCCCCSc1nc(COC(=O)NC)c(COC(=O)NC)n1C	> 100 µM	> 100	> 100	> 100	> 100 µM	> 100	> 100 µM									
CC(=O)C(C=O)C(C)=O.CC(=O)CC(C)=O.CC(=O)CC(C)=O.[Ru]		55.1	> 100	> 100	> 100 µM	9.18	> 100 µM				16.4 µM	17.4 µM	34.8 µM	24.3 µM	1.97 µM	32.7 µM
O=C(CSc1ncc(-c2ccccc2)n1-c1ccccc1)Nc1ccc(-c2nc3ccccc3s2)cc1	> 100 µM	> 100		> 100	73.2 µM	> 100	> 100 µM	39.7 µM	> 100 µM	> 100	8.11 µM		3.5 µM	12 µM	71.5 µM	4.51 µM
O=C1N=C(Nc2nc(-c3csc(NC4=NC(=O)/C(=C\c5ccc(Cl)cc5)S4)n3)cs2)S/C1=C/c1ccc(Cl)cc1		> 50	30.2	> 50	> 50 µM	33.7	> 50 µM		13.3 µM	45.2	24.7 µM	8.99 µM	8.29 µM	> 50 µM	7.85 µM	18.8 µM
Cc1c(O)c(Br)c(C)c(O)c1Br (tested in a mixture with another compound)	29 µM			8.45	10.7 µM		5.54 µM									
